Test results reported in patent US10155802B2, “Locally-active anticoagulants and anti-inflammatory agents” (priority 2011, dated 2018).
Values joined by “and” are separate entries in the source; they are usually repeats but may differ in a detail not shown here. Equal values may be shown once. “Also recorded” adds a separate entry of the source. No end group written: not given here.

How the values were obtained:
thrombin = thrombin (Homo sapiens, UniProt P00734); test: Cleavage of thrombin-sensitive peptides catalyzed by thrombin, followed by HPLC; type: biochemical; set-up: rapidly converts prothrombin into the ultimate protease thrombin; settings: 75 μM peptide, 23 nM thrombin, pH 7.6, 37° C.
Human α-thrombin = biological target: T1, Human α-thrombin (Homo sapiens, UniProt P00734); test: Inhibition of thrombin-catalyzed hydrolysis of chromogenic substrate S-2366 (inhibition constant Ki); type: biochemical; settings: for Ki: T = 37° C., enzyme kinetics, chromogenic substrate
T1 construct: Human α-thrombin was purchased from Haemotologic Technologies, Inc., VT, USA; purchased Haemotologic Technologies, Inc., VT, USA

[1] = tested on: fresh blood withdrawn from rats with venous thrombosis; test: Clotting time (aPTT) of fresh blood withdrawn from treated rats; type: in vivo; settings: rat, 0.2 mg/kg bolus + 0.00433 mg/kg/min infusion; 20 minutes after administration versus before
Description: FIG. 23 illustrates the clotting times (aPTT) determined for fresh blood withdrawn from rats with venous thrombosis at three time points, the first before drug administration and vessel injury, the second at 20 minutes after FeCl3 application and the third 60 minutes following injection of the respective thrombin inhibitors. Clotting times (aPTT) are shown for different rats administered with each thrombin inhibitor, ZIP4 for MH2-wZIP4, ZIP5 for MH2-wZIP5 and T218 for BRI-T218. Dosage levels for every compound were 0.2 mg/kg for the single-bolus injection and 0.00433 mg/kg/min for the maintenance infusion,
Terminal blood samples were analyzed for aPTT within 15 to 30 minutes of collection using a Coag DX Analyzer with aPTT citrate cartridges (IDEXX Laboratories, Westbrook, Me., USA).

[2] = tested on: FeCl3-induced arterial thrombosis (carotid artery); test: FeCl3-induced arterial model of thrombosis in rats (time to occlusion); type: in vivo; settings: rat, single bolus 0.2 mg/kg plus maintenance infusion 0.00433 mg/kg/min
Description: Male Sprague-Dawley rats (250-310 g; Charles River Laboratories, St-Constant, QC, Canada) were acclimated for at least 3 days prior to the start of the study. Animals were housed in microisolator cages and were kept on a 12-hr light/dark cycle with constant temperature and humidity. Food and water were provided ad libitum. Various anti-thrombotic agents and peptides of this invention were dissolved in saline (0.9% sodium chloride) prior to use.
The FeCl3-induced arterial model of thrombosis in rats was also generated as described by Wang and Xu (Wang 2005) with some modifications (Couture 2011). Briefly, rats were anesthetized with a 2.5% isoflurane/oxygen mixture and placed on a heat source (35-37° C.). An incision was made over the right carotid artery, and a segment of the artery was exposed via blunt dissection. A Doppler flow probe (Model MA1PRB, Transonic System Inc., Ithaca, N.Y., USA) connected to a perivascular flow module (TS420, Transonic System Inc., Ithaca, N.Y., USA) was then attached to the carotid artery to monitor blood flow. Data were collected and analyzed using the MP100 Biopac™ Systems (Biopac Systems, Santa Barbara, Calif., USA), and the AcgKnowledge™ software (Biopac Systems, Santa Barbara, Calif., USA), respectively. Baseline blood flow was recorded for a minimum of 15 minutes until readings stabilized. Aquasonic 100 gel (Parker Laboratories, Inc., Fairfield, N.J., USA) was added to help conductivity and any fluid accumulating at the site of surgery was removed during data sampling without touching the probe. […] One minute after drug administration, a piece of filter paper (Gel Blot Paper, GB003, Whatman, Piscataway, N.J., USA; 7 mm diameter) saturated with 20% FeCl3 (EMD Chemicals Inc., Gibbstown, N.J., USA) was placed on the exposed surface of the carotid artery and incubated for 3.5 minutes. During the application of FeCl3, the neck region was covered with aluminum foil. At the end of the incubation period, the filter paper was removed and the exposed carotid was covered with a saline-soaked gauze. Time to occlusion was defined as the time from the application of FeCl3 until blood flow decreased to zero. […] Preparing and processing each animal took approximately 1 hr and 7 animals were treated each day. Control animals were always included when the other treatments were being administered. For this reason, the number of animals in the control group is higher than that of the treated-groups.
Statistical analysis was conducted using GraphPad™ Prism (GraphPad Software Inc., San Diego Calif., USA). Data were analyzed using one-way ANOVA with post-hoc Bonferroni correction for multiple comparisons. The relationship between thrombus weight and thrombus volume was determined by linear regression. […]

rat-tail collagen type I = biological target: T2, rat-tail collagen type I (Rattus norvegicus, UniProt P02454+P02466); test: Peptide-collagen binding by reduction of collagen fibril alignment (deuterium coupling constant); settings: collagen gelation under magnetic field in presence of peptide
T2 construct: purchased BD Bioscience; host or cells: rat tail (tissue-derived)
T2 sequence (P02454 152-1207): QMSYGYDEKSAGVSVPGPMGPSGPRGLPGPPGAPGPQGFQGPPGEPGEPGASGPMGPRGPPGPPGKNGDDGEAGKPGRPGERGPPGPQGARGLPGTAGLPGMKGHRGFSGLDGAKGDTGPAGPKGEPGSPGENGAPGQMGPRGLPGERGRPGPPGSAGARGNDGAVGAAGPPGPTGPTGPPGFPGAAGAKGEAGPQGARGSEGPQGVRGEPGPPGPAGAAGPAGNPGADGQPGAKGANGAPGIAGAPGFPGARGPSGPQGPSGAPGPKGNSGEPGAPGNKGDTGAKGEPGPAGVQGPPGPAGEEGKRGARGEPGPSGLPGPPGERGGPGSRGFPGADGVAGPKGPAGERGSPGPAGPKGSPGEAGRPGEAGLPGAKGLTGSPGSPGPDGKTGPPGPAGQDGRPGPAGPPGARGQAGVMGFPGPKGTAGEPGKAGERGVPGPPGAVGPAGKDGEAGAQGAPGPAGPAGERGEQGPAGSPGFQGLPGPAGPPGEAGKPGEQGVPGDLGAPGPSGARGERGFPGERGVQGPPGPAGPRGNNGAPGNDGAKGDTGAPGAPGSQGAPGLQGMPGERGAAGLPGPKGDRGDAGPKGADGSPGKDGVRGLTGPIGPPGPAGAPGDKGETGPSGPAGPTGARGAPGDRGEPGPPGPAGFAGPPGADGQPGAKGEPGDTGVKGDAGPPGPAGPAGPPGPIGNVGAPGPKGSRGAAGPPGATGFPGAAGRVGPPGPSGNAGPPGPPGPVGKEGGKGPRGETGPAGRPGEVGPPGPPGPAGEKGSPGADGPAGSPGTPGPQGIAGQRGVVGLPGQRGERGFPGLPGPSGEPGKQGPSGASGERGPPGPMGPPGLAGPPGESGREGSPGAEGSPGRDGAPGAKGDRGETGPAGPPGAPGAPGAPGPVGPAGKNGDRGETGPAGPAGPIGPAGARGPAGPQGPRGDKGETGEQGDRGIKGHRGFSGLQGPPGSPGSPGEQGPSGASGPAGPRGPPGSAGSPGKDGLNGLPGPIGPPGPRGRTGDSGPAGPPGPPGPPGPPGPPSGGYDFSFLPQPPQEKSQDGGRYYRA
T2 sequence (P02466 86-1125): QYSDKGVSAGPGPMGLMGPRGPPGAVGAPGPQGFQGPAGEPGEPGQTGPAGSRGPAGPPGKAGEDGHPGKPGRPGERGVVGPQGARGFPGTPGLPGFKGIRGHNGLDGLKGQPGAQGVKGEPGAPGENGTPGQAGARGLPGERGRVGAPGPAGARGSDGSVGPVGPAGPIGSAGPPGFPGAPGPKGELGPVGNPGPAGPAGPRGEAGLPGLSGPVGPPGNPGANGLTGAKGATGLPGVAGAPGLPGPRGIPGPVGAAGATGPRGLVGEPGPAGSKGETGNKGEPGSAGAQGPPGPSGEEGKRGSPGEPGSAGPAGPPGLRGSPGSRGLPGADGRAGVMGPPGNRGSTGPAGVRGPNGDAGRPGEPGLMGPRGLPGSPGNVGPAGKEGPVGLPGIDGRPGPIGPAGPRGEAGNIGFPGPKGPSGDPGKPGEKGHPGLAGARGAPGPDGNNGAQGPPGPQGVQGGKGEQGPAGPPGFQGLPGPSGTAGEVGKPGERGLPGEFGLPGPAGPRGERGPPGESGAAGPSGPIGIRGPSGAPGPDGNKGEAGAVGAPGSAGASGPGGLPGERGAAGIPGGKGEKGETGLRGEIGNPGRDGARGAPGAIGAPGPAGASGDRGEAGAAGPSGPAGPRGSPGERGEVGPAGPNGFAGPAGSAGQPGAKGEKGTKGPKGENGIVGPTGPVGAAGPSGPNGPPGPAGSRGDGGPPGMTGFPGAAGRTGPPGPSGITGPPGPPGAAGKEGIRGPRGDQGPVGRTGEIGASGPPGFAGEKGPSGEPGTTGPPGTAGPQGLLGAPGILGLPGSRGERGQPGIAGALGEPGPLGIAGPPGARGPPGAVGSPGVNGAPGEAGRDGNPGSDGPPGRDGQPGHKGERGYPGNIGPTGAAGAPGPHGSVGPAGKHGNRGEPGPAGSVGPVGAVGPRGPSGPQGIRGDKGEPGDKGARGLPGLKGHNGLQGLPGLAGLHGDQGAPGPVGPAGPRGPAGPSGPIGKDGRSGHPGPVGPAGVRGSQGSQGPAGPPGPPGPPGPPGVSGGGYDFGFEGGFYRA
Description: High-resolution proton NMR spectroscopy is used to illustrate the behavior of the linker peptides […] (SEQ ID NO: 2 or gb1), […] (SEQ ID NO: 3 or trpzip6), […] (SEQ ID NO: 4 or trpzip5) and […] (SEQ ID NO: 5 or trpzip4) in aqueous solutions. The peptides were synthesized using standard Fmoc chemistry and purified by reverse-phase HPLC. Their identity was confirmed by mass-spectroscopy and NMR spectroscopy. For NMR studies, a volume of (400-X) μL of a peptide dissolved in pure water was mixed with 50 μL of a 10×PBS (phosphate-buffered saline) supplemented by sodium phosphate to a final concentration of 50 mM and with 50 μL of deuterated water (D2O) to form the reference sample (where X=0) and with a certain volume (X μL) of rat-tail collagen type I (at 3.6 to 4 mg/ml in 0.02 N acetic acid from BD Bioscience), (where X is adjusted to achieve the desired final concentration of collagen), with 50 μL of the 10× modified PBS and with 50 μL of deuterated water (D2O) to form the peptide-collagen complex. The pH value of the reference peptide samples was adjusted to match the pH of the final peptide-collagen complex in order to facilitate NMR spectral comparison.
The peptide-collagen solutions were subjected to gelation under magnetic field guidance (see Example 7) followed by the measurement of fibril alignment (Ma 2008) as a semi-quantitative indication of peptide-collagen binding. […]

Molecule | cleavage by thrombin (thrombin) | reduction of Ki as compared to BRI-T207 (Human α-thrombin) | reduction of Ki as compared to MH2-wZIP4 (Human α-thrombin) | Ki (Human α-thrombin) | clotting time (aPTT), systemic anticoagulant effect [1] | anti-thrombotic efficacy in arterial model [2] | reduction of deuterium coupling constant (degree of collagen fibril alignment) (rat-tail collagen type I)
CC[C@H](C)[C@H](NC(=O)[C@H](CCC(=O)O)NC(=O)[C@H](CCC(=O)O)NC(=O)[C@H](Cc1ccccc1)NC(=O)[C@H](CC(=O)O)NC(=O)CNC(=O)[C@H](CCC(=O)O)NC(=O)[C@@H](NC(=O)[C@H](Cc1c[nH]c2ccccc12)NC(=O)[C@@H](NC(=O)[C@H](Cc1c[nH]c2ccccc12)NC(=O)[C@@H](NC(=O)[C@H](CCCCN)NC(=O)[C@@H](NC(=O)[C@H](C)NC(=O)[C@H](CC(=O)O)NC(=O)[C@H](CC(=O)O)NC(=O)[C@H](Cc1c[nH]c2ccccc12)NC(=O)[C@@H](NC(=O)[C@H](Cc1c[nH]c2ccccc12)NC(=O)[C@H](CCC(=O)O)NC(=O)CNC(=O)[C@H](CC(=O)O)NC(=O)[C@@H](NC(=O)[C@H](Cc1ccccc1)NC(=O)[C@H](CCCNC(=N)N)NC(=O)[C@@H]1CCCN1C(=O)[C@H](CCCNC(=N)N)NC(=O)[C@@H]1CCCN1C(=O)[C@H](N)Cc1ccccc1)[C@@H](C)O)[C@@H](C)O)[C@@H](C)O)[C@@H](C)O)[C@@H](C)O)[C@@H](C)O)C(=O)N1CCC[C@H]1C(=O)N[C@@H](CCC(=O)O)C(=O)N[C@@H](CCC(=O)O)C(=O)N[C@@H](Cc1ccc(O)cc1)C(=O)N[C@@H](CC(C)C)C(=O)O [BRI-T208] | significantly more resistant to thrombin cleavage than BRI-T218 | about 13 fold | approximately 5 fold | ~0.028 µM and 0.028 µM | – | – | –
CC[C@H](C)[C@H](NC(=O)[C@H](CCCNC(=N)N)NC(=O)[C@@H]1CCCN1C(=O)[C@H](N)Cc1ccccc1)C(=O)N[C@@H](CCCNC(=N)N)C(=O)N[C@@H](Cc1ccccc1)C(=O)N[C@H](C(=O)N[C@@H](CC(=O)O)C(=O)NCC(=O)N[C@@H](CCC(=O)O)C(=O)N[C@@H](Cc1c[nH]c2ccccc12)C(=O)N[C@H](C(=O)N[C@@H](Cc1c[nH]c2ccccc12)C(=O)N[C@@H](CC(=O)O)C(=O)N[C@@H](CC(=O)O)C(=O)N[C@@H](C)C(=O)N[C@H](C(=O)N[C@@H](CCCCN)C(=O)N[C@H](C(=O)N[C@@H](Cc1c[nH]c2ccccc12)C(=O)N[C@H](C(=O)N[C@@H](Cc1c[nH]c2ccccc12)C(=O)N[C@H](C(=O)N[C@@H](CCC(=O)O)C(=O)NCC(=O)N[C@@H](CC(=O)O)C(=O)N[C@@H](Cc1ccccc1)C(=O)N[C@@H](CCC(=O)O)C(=O)N[C@@H](CCC(=O)O)C(=O)N[C@H](C(=O)N1CCC[C@H]1C(=O)N[C@@H](CCC(=O)O)C(=O)N[C@@H](CCC(=O)O)C(=O)N[C@@H](Cc1ccc(O)cc1)C(=O)N[C@@H](CC(C)C)C(=O)O)[C@@H](C)CC)[C@@H](C)O)[C@@H](C)O)[C@@H](C)O)[C@@H](C)O)[C@@H](C)O)[C@@H](C)O [BRI-T218] | completely converted to the cleavage products within two hours; also recorded: almost completion of the cleavage reaction after 2 hours of incubation | – | – | ~0.014 µM and 0.014 µM | only a slight prolongation of the clotting time (aPTT) | appears to restore the anti-thrombotic activity; also recorded: increases the efficacy | –
GEWTWDDATKTWTWTE (not fully specified (C-terminus)) [trpzip4] | – | – | – | – | – | – | more than 1.0 Hz
